Assay results: ChEMBL document CHEMBL1127083 (J Med Chem, 1993)
pKi: −log10 of the molar value.

What was measured:
[1] = target: Leukotriene B4 receptor 1 (Homo sapiens, UniProt Q15722); experiment: Tested for inhibition of specific binding of [3H]LTB4 to human neutrophil expressing LTB4 receptor
Leukotriene B4 receptor = Leukotriene B4 receptor (Homo sapiens, UniProt Q9NPC1+Q15722); experiment: Inhibition of LTB4-induced up-regulation of human neutrophil CD11b/CD18 integrin; assay type: functional

Sequence of Leukotriene B4 receptor 1 (Q15722 whole entry): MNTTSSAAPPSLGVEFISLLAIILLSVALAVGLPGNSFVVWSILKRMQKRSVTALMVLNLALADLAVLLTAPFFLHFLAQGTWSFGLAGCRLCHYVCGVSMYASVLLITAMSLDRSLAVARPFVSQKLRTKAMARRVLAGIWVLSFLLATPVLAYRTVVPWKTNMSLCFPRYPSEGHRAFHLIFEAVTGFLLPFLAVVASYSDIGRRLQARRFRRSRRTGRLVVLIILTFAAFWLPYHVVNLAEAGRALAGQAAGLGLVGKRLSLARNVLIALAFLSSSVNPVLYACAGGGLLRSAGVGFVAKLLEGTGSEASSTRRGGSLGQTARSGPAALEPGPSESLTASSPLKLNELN

SMILES | pKi [1] | IC50 (Leukotriene B4 receptor)
CCc1cc(-c2ccc(F)cc2)c(O)cc1OCCCOc1ccc2c(=O)c3ccccc3oc2c1CCC(=O)O | 7.44 | 1.8 nM
CCc1cc(-c2ccc(F)cc2)c(O)cc1OCCCOc1ccc2c(=O)c3cc(C(=O)O)ccc3oc2c1CCC(=O)O | 9.33 | 1.2 nM
CCc1cc(-c2ccccc2)c(O)cc1OCCCOc1ccc2c(=O)c3cc(C(=O)O)ccc3oc2c1CCC(=O)O | 9.24 | 3.4 nM
CCc1cc(-c2ccccc2)c(O)cc1OCCCOc1ccc2c(=O)c3ccccc3oc2c1CCC(=O)O | 7.66 | 5.4 nM
